Measurements: US20250161234A1, “METHODS OF USE OF BENZALDEHYDE COMPOSITIONS” (priority 2022, published 2025)

What was measured:
Type in all cases: cell-based
[1] = tested on: E. coli; assay: Successive dilution in TSB, growth inhibition; parameters: key: The presence of a “+” in the box indicates that the particular bacteria was found; the presence of a “−” indicates that the particular bacteria was not found
Description: (§1) The following is a summary of an experiment using the benzaldehyde composition as disclosed herein to destroy bacteria, for example to test it as a preservative of food. The benzaldehyde was tested for its ability to inhibit the growth of microbes at ten different concentrations of the benzaldehyde, each concentration was half of the previous concentrations as a result of a dilution using TSB as the medium. The following concentrations were tested by successive dilutions of 100% benzaldehyde: 50%, 25%, 12.5%, 6.25%, 3.125%, 1.5625%, 0.78125%, 0.390625%, 0.195313%, 0.097656%. Each concentration appears in the chart below for each of five different strains of bacteria. The experiment was conducted twice and therefore generated two charts (see below). […] Thus, the minimum concentration needed to substantially eliminate the bacterial strain can be deduced from the experiment.
(§2) The initial concentration of the microbes was approximately […]. The microbes studied are listed below. Enterococcus feaclis • 2. Staphylococcus aureus • 3. Pseudomonas aeruginosa • 4. E. coli • 5. Klebsiella pneomoniae

[2] = tested on: Enterococcus feaclis; assay: Successive dilution in TSB, growth inhibition; parameters: key: The presence of a “+” in the box indicates that the particular bacteria was found; the presence of a “−” indicates that the particular bacteria was not found
Description: as §1, §2

[3] = tested on: Klebsiella pneomoniae; assay: Successive dilution in TSB, growth inhibition; parameters: key: The presence of a “+” in the box indicates that the particular bacteria was found; the presence of a “−” indicates that the particular bacteria was not found
Description: as §1, §2

[4] = tested on: Pseudomonas aeruginosa; assay: Successive dilution in TSB, growth inhibition; parameters: key: The presence of a “+” in the box indicates that the particular bacteria was found; the presence of a “−” indicates that the particular bacteria was not found
Description: as §1, §2

[5] = tested on: Staphylococcus aureus; assay: Successive dilution in TSB, growth inhibition; parameters: key: The presence of a “+” in the box indicates that the particular bacteria was found; the presence of a “−” indicates that the particular bacteria was not found
Description: as §1, §2

[6] = tested on: five different strains of bacteria; assay: Successive dilution in TSB, statements on all five strains
Description: as §1, §2
A further experiment was conducted in which instead of starting from a 100% concentration, we started from a 10% concentration of benzaldehyde and performed successive dilutions. […] This experimental was not repeated after receiving the results.

[7] = tested on: E. coli; assay: Successive dilution in TSB, growth inhibition; parameters: key: The presence of a “+” in the box indicates that the particular bacteria was found; the presence of a “−” indicates that the particular bacteria was not found; settings: benzaldehyde concentration given as 2, in TSB; Table 1
[8] = benzaldehyde 0.097656% in TSB, Table 1
[9] = benzaldehyde 0.097656% in TSB, Table 2
[10] = benzaldehyde 0.195313% in TSB, Table 1
[11] = benzaldehyde 0.195313% in TSB, Table 2
[12] = benzaldehyde 0.390625% in TSB, Table 1
[13] = benzaldehyde 0.390625% in TSB, Table 2
[14] = benzaldehyde 0.78125% in TSB, Table 1
[15] = benzaldehyde 0.78125% in TSB, Table 2
[16] = benzaldehyde 1.5625% in TSB, Table 1
[17] = benzaldehyde 1.5625% in TSB, Table 2
[18] = benzaldehyde 3.125% in TSB, Table 1
[19] = benzaldehyde 3.125% in TSB, Table 2
[20] = benzaldehyde 6.25% in TSB, Table 1
[21] = benzaldehyde 6.25% in TSB, Table 2
[22] = benzaldehyde 12.5% in TSB, Table 1
[23] = benzaldehyde 12.5% in TSB, Table 2
[24] = benzaldehyde 25% in TSB, Table 2
[25] = benzaldehyde 50% in TSB, Table 1
[26] = benzaldehyde 50% in TSB, Table 2
[27] = benzaldehyde concentration given as 2, in TSB, Table 1
[28] = conclusion from the dilution experiments

Structure (SMILES): O=Cc1ccccc1 [Benzaldehyde]
- bacteria found (+) / not found (−) [1, 8]: +
- bacteria found (+) / not found (−) [1, 9]: +
- bacteria found (+) / not found (−) [1, 10]: +
- bacteria found (+) / not found (−) [1, 11]: +
- bacteria found (+) / not found (−) [1, 12]: +
- bacteria found (+) / not found (−) [1, 13]: +
- bacteria found (+) / not found (−) [1, 14]: +
- bacteria found (+) / not found (−) [1, 15]: +
- bacteria found (+) / not found (−) [1, 16]: −
- bacteria found (+) / not found (−) [1, 17]: −
- bacteria found (+) / not found (−) [1, 18]: −
- bacteria found (+) / not found (−) [1, 19]: −
- bacteria found (+) / not found (−) [1, 20]: −
- bacteria found (+) / not found (−) [1, 21]: −
- bacteria found (+) / not found (−) [1, 22]: −
- bacteria found (+) / not found (−) [1, 23]: −
- bacteria found (+) / not found (−) [1, 24]: −
- bacteria found (+) / not found (−) [1, 25]: −
- bacteria found (+) / not found (−) [1, 26]: −
- bacteria found (+) / not found (−) [2, 8]: +
- bacteria found (+) / not found (−) [2, 9]: +
- bacteria found (+) / not found (−) [2, 10]: +
- bacteria found (+) / not found (−) [2, 11]: +
- bacteria found (+) / not found (−) [2, 12]: +
- bacteria found (+) / not found (−) [2, 13]: +
- bacteria found (+) / not found (−) [2, 14]: +
- bacteria found (+) / not found (−) [2, 15]: +
- bacteria found (+) / not found (−) [2, 16]: +
- bacteria found (+) / not found (−) [2, 17]: +
- bacteria found (+) / not found (−) [2, 18]: +
- bacteria found (+) / not found (−) [2, 19]: +
- bacteria found (+) / not found (−) [2, 20]: +
- bacteria found (+) / not found (−) [2, 21]: +
- bacteria found (+) / not found (−) [2, 22]: −
- bacteria found (+) / not found (−) [2, 23]: −
- bacteria found (+) / not found (−) [2, 24]: −
- bacteria found (+) / not found (−) [2, 25]: −
- bacteria found (+) / not found (−) [2, 26]: −
- bacteria found (+) / not found (−) [2, 27]: −
- bacteria found (+) / not found (−) [3, 8]: +
- bacteria found (+) / not found (−) [3, 9]: +
- bacteria found (+) / not found (−) [3, 10]: +
- bacteria found (+) / not found (−) [3, 11]: +
- bacteria found (+) / not found (−) [3, 12]: +
- bacteria found (+) / not found (−) [3, 13]: −
- bacteria found (+) / not found (−) [3, 14]: +
- bacteria found (+) / not found (−) [3, 15]: −
- bacteria found (+) / not found (−) [3, 16]: −
- bacteria found (+) / not found (−) [3, 17]: −
- bacteria found (+) / not found (−) [3, 18]: −
- bacteria found (+) / not found (−) [3, 19]: −
- bacteria found (+) / not found (−) [3, 20]: −
- bacteria found (+) / not found (−) [3, 21]: −
- bacteria found (+) / not found (−) [3, 22]: −
- bacteria found (+) / not found (−) [3, 23]: −
- bacteria found (+) / not found (−) [3, 24]: −
- bacteria found (+) / not found (−) [3, 25]: −
- bacteria found (+) / not found (−) [3, 26]: −
- bacteria found (+) / not found (−) [3, 27]: −
- bacteria found (+) / not found (−) [4, 8]: +
- bacteria found (+) / not found (−) [4, 9]: +
- bacteria found (+) / not found (−) [4, 10]: +
- bacteria found (+) / not found (−) [4, 11]: +
- bacteria found (+) / not found (−) [4, 12]: +
- bacteria found (+) / not found (−) [4, 13]: +
- bacteria found (+) / not found (−) [4, 14]: +
- bacteria found (+) / not found (−) [4, 15]: +
- bacteria found (+) / not found (−) [4, 16]: −
- bacteria found (+) / not found (−) [4, 17]: −
- bacteria found (+) / not found (−) [4, 18]: −
- bacteria found (+) / not found (−) [4, 19]: −
- bacteria found (+) / not found (−) [4, 20]: −
- bacteria found (+) / not found (−) [4, 21]: −
- bacteria found (+) / not found (−) [4, 22]: −
- bacteria found (+) / not found (−) [4, 23]: −
- bacteria found (+) / not found (−) [4, 24]: −
- bacteria found (+) / not found (−) [4, 25]: −
- bacteria found (+) / not found (−) [4, 26]: −
- bacteria found (+) / not found (−) ([4]; in TSB, Table 1): −
- bacteria found (+) / not found (−) [5, 8]: +
- bacteria found (+) / not found (−) [5, 9]: +
- bacteria found (+) / not found (−) [5, 10]: +
- bacteria found (+) / not found (−) [5, 11]: +
- bacteria found (+) / not found (−) [5, 12]: +
- bacteria found (+) / not found (−) [5, 13]: +
- bacteria found (+) / not found (−) [5, 14]: +
- bacteria found (+) / not found (−) [5, 15]: +
- bacteria found (+) / not found (−) [5, 16]: +
- bacteria found (+) / not found (−) [5, 17]: −
- bacteria found (+) / not found (−) [5, 18]: −
- bacteria found (+) / not found (−) [5, 19]: −
- bacteria found (+) / not found (−) [5, 20]: −
- bacteria found (+) / not found (−) [5, 21]: −
- bacteria found (+) / not found (−) [5, 22]: −
- bacteria found (+) / not found (−) [5, 23]: −
- bacteria found (+) / not found (−) [5, 24]: −
- bacteria found (+) / not found (−) [5, 25]: −
- bacteria found (+) / not found (−) [5, 26]: −
- bacteria found (+) / not found (−) [5, 27]: −
- benzaldehyde concentration giving a broad spectrum effect [6, 28]: ≥ 12.5%
- benzaldehyde concentration giving an antibacterial effect against at least some bacteria [6, 28]: ≥ 1.5625%
- detection of bacteria ([6]; further experiment started from 10% benzaldehyde, first dilution to 5%, all strains): positive detection of bacteria for all strains
- bacteria found (+) / not found (−) [7]: −
